As a reminder, the EC50 is the concentration that produces a half-maximal response. Low values mean an effect from little substance, high ones a need for much substance. What is called KD is the equilibrium constant for the complex coming apart. A higher KD goes with lower affinity.

From doi:10.1101/2024.02.23.581746 (2024) come the findings set out here.

Assay [1] concerns B. subtilis PreQ1 (SHAPE-MaP) (RNA, riboswitch) GGGCCUUCGGGCCAAGCGGGAGAGGUUCUAGCUACACCCUCUAUAAAAAACUAAGGACGAGCUGUAUCCUUGGAUACGGCCUUUUUCGAUCCGGUUCGCCGGAUCCAAAUCGGGCUUCGGUCCGGUUC
In words: SHAPE-MaP (2A3). To be noted: 100 mM KCl, 1 mM MgCl2.

Assay [2] relates to L. rhamnosus PreQ1 (SHAPE-MaP) (RNA, riboswitch) GGGCCUUCGGGCCAAGGAACCGCCCCGCGCGCUUCCACGAUACUUAUUUCCUUUGAUCGUCGUUAUUACUGGCAAAGCCACAAAGGAGUCGAUCCGGUUCGCCGGAUCCAAAUCGGGCUUCGGUCCGGUUC
In words: SHAPE-MaP (2A3). To be noted: 100 mM KCl, 1 mM MgCl2.

Assay [3] deals with F. prausnitzii PreQ1 (SHAPE-MaP) (RNA, riboswitch) GGGCCUUCGGGCCAAGGAACGCUGAAAGAGCAACUUAGGAUUUUAGGCUCCCCGGCGUGUCUCGAACCAUGCCGGGCCAAACCCAUAGGGCUGGCGGUCCCUGUGCGGUCAAAAUUCAUCCGCCGGAGUAUUGUUAUCGAUCCGGUUCGCCGGAUCCAAAUCGGGCUUCGGUCCGGUUC
In words: SHAPE-MaP (2A3). To be noted: 100 mM KCl, 1 mM MgCl2.

Assay [4] relates to S. pneumoniae PreQ1 (SHAPE-MaP) (RNA, riboswitch) GGGCCUUCGGGCCAACUUGGUGCUUAGCUUCUUUCACCAAGCAUAUUACACGCGGAUAACCGCCAAAGGAGAAUCGAUCCGGUUCGCCGGAUCCAAAUCGGGCUUCGGUCCGGUUC
Kind of assay: SHAPE-MaP (2A3). The note with it: 100 mM KCl, 1 mM MgCl2.

In assay [5] the test system is Tte-PreQ1 ab13_14_15 (RNA, riboswitch, abasic at 13, 14 and 15) CUGGGUCGCAGUNNNCCCAGUUAACAAAACAAG
Kind of assay: X-ray crystallography, 2.15 Å. The note with it: potassium sodium tartrate 100-300 mM; sodium citrate pH 5.6, ammonium sulfate 2.0-2.6 M, 20 °C.

Assay [6] has as its system Bsu PreQ1 RNA (MAGNA) (RNA, riboswitch) UCGGCGAUCUACGCAGCGACAUAAUAAGAGGUUCUAGCUACACCCUCUAUAAAAAACUAAUAACAACCACUUCCUAAUCUGUCAUCUUCUG
In words: magnetic force spectroscopy (MAGNA), median unfolding force. The note with it: 100 mM KCl, 1 mM MgCl2; 50 mM HEPES pH 7.4, 1% DMSO, 22 °C; from refolding force 456±258 μM.

Assay [7] has as its system Cy5-labeled Bsu PreQ1 aptamer (RNA, riboswitch) GCGGGAGAGGUUCUAGCUACACCCUCUAUAAAAAACUAAGGACGAGCUGUAUCCUUGGAUACGGCC
Kind of assay: MST. To be noted: 100 mM KCl, 1 mM MgCl2, 50 mM Tris pH 7.5, room temperature, DMSO.

Assay [8] deals with Tte-PreQ1 ab13_14_15 (RNA, riboswitch, abasic at 13, 14 and 15) CUGGGUCGCAGUNNNCCCAGUUAACAAAACAAG
In words: X-ray crystallography, 2.25 Å. To be noted: potassium sodium tartrate 100-300 mM; sodium citrate pH 5.6, ammonium sulfate 2.0-2.6 M, 20 °C.

The test system of assay [9] is Cy5-labeled Bsu PreQ1 aptamer (RNA, riboswitch) GCGGGAGAGGUUCUAGCUACACCCUCUAUAAAAAACUAAGGACGAGCUGUAUCCUUGGAUACGGCC
Kind of assay: Cy5 fluorescence intensity assay (text says ligand fluorescence). To be noted: 100 mM KCl, 1 mM MgCl2; 50 mM Tris pH 7.5, room temperature, 5% DMSO, 50 nM RNA.

Assay [10] has the same test system. Kind of assay: MST (Figure S1 legend); text says ligand fluorescence. To be noted: 100 mM KCl, 1 mM MgCl2; 50 mM Tris pH 7.5, room temperature, DMSO.
For assay [11], the system named is T. tengcongensis PreQ1 (SHAPE-MaP) (RNA, riboswitch) GGGCCUUCGGGCCAACUCACCUGGGUCGCAGUAACCCCAGUUAACAAAACAAGGGAGGUAAUUUUUCGAUCCGGUUCGCCGGAUCCAAAUCGGGCUUCGGUCCGGUUC
In words: SHAPE-MaP (2A3). To be noted: 100 mM KCl, 1 mM MgCl2; 50 mM Tris pH 7.5, 10 μM compound.

Assay [12] deals with Bsu PreQ1 RNA (MAGNA) (RNA, riboswitch) UCGGCGAUCUACGCAGCGACAUAAUAAGAGGUUCUAGCUACACCCUCUAUAAAAAACUAAUAACAACCACUUCCUAAUCUGUCAUCUUCUG
In words: magnetic force spectroscopy (MAGNA). The note with it: 100 mM KCl, 1 mM MgCl2; 50 mM HEPES pH 7.4, 1% DMSO, 22 °C; 500 nM called saturating.

Setting [13] is: 50 mM Tris pH 7.5, 150 μM compound.
[14] abbreviates: 50 mM Tris pH 7.5, 10 μM compound.

`CN(C)CCOc1ccc2oc3ccccc3c(=O)c2c1`: the binding entry in assay [1] (setting [13]), in [2] (setting [13]), in assay [3] (setting [13]), in [4] (setting [13]) and in assay [5] was “yes” throughout. Moreover, the half-maximal effective concentration (EC50) in assay [6] came out at 394 ± 157 µM.

On to `CN(C)CCOc1ccc2sc3ccccc3c(=O)c2c1`, for which the dissociation constant KD in assay [7] came to 58 ± 30 µM.

Take `CNc1cc2c(=O)c3cc(O)ccc3oc2cn1`: the binding entry in [7] (tested up to 500 μM) is “no”.

Molecule `COc1ccc2c(c1)NC(=O)c1cc(N)ccc1O2` displayed a dissociation constant (KD) in [7] of 1.9 ± 0.2 µM.

Turning to `COc1ccc2c(c1)Oc1ccc(N)cc1C(=O)N2`, the equilibrium dissociation constant (KD) in [7] was determined as 18.3 ± 7.0 µM.

With `Cc1nccc2c1[nH]c1cc(OCCN(C)C)ccc12`, in assay [8], the binding entry was “yes”. This molecule registered a dissociation constant (KD) in assay [9] of 104.4 ± 20 µM.

As for `NC(=O)COc1ccc2oc3ccccc3c(=O)c2c1`, the KD in assay [10] is greater than 500 µM.

As to `NCc1c[nH]c2nc(N)[nH]c(=O)c12`, the binding entry in assay [1] (setting [14]), in assay [11], in assay [2] (setting [14]), in [3] (setting [14]), in [4] (setting [14]) and in assay [12] was “yes” each time.
